In brackets after ≈: the same amount, converted by molar mass.
How the values were obtained:
Cytochrome P450 2C9 = Cytochrome P450 2C9 (Homo sapiens, UniProt P11712); assay: Inhibition of CYP2C9 in human liver microsomes using tolbutamide as substrate by HPLC-MS/MS method; assay type: ADME
[1] = Permeability of the compound at 1 uM […] by PAMPA; assay type: physicochemical; details: read-out: permeability
[2] = system: Mycobacterium tuberculosis; assay: Bactericidal activity against Mycobacterium tuberculosis H37Rv infected in mouse RAW264.7 cells assessed as bacterial colony formation at 5 uM after 5 days (reference value: 4.1 to 4.73 log10CU); assay type: functional
Cytochrome P450 2C19 = Cytochrome P450 2C19 (Homo sapiens, UniProt P33261); assay: Inhibition of CYP2C19 in human liver microsomes using S-(+)-mephenytoin as substrate by HPLC-MS/MS method; assay type: ADME
Chain of Cytochrome P450 2C19 (P33261 whole entry): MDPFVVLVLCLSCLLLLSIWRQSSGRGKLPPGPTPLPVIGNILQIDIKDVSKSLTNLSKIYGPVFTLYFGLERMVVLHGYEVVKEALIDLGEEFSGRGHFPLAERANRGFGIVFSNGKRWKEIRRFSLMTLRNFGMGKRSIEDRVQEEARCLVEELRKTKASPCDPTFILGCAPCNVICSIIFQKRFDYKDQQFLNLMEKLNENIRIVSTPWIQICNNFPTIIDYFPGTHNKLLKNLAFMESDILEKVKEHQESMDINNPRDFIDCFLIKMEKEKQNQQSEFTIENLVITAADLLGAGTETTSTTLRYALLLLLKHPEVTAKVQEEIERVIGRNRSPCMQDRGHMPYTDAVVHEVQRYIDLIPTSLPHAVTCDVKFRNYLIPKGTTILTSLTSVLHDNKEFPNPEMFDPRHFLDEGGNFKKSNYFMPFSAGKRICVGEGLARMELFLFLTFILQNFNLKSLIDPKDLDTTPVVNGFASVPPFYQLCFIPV

[3] = system: Mycobacterium tuberculosis; assay type: functional; details: H37Rv, 168 h
[4] = Half life in human liver S9 fraction at 2 uM by HPLC-MS/MS analysis; assay type: ADME, tissue-based
[5] = Cytotoxicity against human HaCaT cells assessed as viability at 10 uM after 72 hrs by MTT assay relative to control; assay type: cell-based; details: read-out: Activity
[6] = system: Mycobacterium tuberculosis; assay: Potency index, ratio of moxifloxacin MIC to test compound MIC for Mycobacterium tuberculosis PE-003 clinical isolate; assay type: functional
[7] = system: Mycobacterium tuberculosis; assay: Potency index, ratio of isoniazid MIC to test compound MIC for Mycobacterium tuberculosis H37Rv; assay type: functional
Cytochrome P450 3A4 = Cytochrome P450 3A4 (Homo sapiens, UniProt P08684); assay: Inhibition of CYP3A4 in human liver microsomes using testosterone as substrate by HPLC-MS/MS method; assay type: ADME
Chain of Cytochrome P450 3A4 (P08684 whole entry): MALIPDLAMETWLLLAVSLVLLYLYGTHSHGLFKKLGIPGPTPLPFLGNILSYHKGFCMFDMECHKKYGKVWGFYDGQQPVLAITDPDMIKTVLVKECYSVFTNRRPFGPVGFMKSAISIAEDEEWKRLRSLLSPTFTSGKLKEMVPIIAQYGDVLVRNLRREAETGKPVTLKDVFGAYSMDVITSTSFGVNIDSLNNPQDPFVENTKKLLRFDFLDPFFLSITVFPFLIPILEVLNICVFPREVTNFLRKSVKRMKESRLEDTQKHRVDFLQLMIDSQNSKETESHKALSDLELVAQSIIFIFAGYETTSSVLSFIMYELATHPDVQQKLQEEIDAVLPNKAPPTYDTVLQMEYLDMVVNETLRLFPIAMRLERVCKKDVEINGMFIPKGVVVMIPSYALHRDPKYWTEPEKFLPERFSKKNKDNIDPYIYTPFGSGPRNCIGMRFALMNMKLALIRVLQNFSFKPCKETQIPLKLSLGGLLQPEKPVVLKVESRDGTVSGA

[8] = system: Mycobacterium tuberculosis; assay: microbe, parasite or virus in culture; details: PE-003, 168 h
Description: Antimycobacterial activity against Mycobacterium tuberculosis PE-003 clinical isolate after 7 days by resazurin reduction microplate assay

[9] = system: Mycobacterium tuberculosis; assay type: functional; details: H37Rv, 168 h; remark: listed apart in the source
[10] = system: Mycobacterium tuberculosis; assay type: functional; details: H37Rv, 168 h; remark: listed apart in the source
[11] = system: Mycobacterium tuberculosis; assay type: functional; details: H37Rv, 168 h; remark: listed apart in the source
[12] = Cytotoxicity against mouse N9 cells assessed as viability at 10 uM after 72 hrs by MTT assay relative to control; assay type: cell-based; details: read-out: Activity
[13] = Thermodynamic solubility of the compound in 0.1N HCl at pH 1.5 after 24 hrs by HPLC method; assay type: physicochemical; details: read-out: Therm_solubility
Cytochrome P450 2E1 = Cytochrome P450 2E1 (Homo sapiens, UniProt P05181); assay: Inhibition of CYP2E1 in human liver microsomes using chlorzoxazone as substrate by HPLC-MS/MS method; assay type: ADME
Chain of Cytochrome P450 2E1 (P05181 whole entry): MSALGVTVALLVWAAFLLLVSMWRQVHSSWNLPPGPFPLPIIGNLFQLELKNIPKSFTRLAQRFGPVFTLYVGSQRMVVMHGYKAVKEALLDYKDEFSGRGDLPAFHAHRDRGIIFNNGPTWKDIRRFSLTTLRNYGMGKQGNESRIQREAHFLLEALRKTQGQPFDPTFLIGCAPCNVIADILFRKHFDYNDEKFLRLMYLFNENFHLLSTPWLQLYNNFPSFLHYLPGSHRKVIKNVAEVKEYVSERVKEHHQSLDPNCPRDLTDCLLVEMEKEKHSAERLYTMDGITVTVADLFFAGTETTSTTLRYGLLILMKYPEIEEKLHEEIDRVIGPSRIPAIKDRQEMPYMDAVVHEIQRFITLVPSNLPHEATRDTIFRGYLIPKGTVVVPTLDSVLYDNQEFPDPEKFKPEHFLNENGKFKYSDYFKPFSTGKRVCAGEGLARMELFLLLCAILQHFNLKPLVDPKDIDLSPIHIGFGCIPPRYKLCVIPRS

Cytochrome P450 2D6 = Cytochrome P450 2D6 (Homo sapiens, UniProt P10635); assay: Inhibition of CYP2D6 in human liver microsomes using dextromethorphan as substrate by HPLC-MS/MS method; assay type: ADME
Chain of Cytochrome P450 2D6 (P10635 whole entry): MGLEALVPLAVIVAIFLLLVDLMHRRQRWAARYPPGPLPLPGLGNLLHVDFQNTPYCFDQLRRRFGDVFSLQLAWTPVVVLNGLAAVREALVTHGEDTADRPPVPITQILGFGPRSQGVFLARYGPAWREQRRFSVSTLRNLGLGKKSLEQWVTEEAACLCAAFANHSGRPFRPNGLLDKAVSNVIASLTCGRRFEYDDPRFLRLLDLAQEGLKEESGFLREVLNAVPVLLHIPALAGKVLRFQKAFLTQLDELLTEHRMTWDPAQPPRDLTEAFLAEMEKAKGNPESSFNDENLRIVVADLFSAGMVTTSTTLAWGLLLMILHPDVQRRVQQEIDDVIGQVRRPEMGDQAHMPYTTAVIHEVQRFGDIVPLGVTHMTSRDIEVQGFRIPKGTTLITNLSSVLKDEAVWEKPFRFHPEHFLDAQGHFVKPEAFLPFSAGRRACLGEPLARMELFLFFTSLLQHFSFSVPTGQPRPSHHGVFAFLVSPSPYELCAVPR

Cytochrome P450 1A2 = target: T1, Cytochrome P450 1A2 (Homo sapiens, UniProt P05177); assay: Inhibition of CYP1A2 in human liver microsomes using phenacetin as substrate by HPLC-MS/MS method; assay type: ADME
T1 sequence (P05177 whole entry): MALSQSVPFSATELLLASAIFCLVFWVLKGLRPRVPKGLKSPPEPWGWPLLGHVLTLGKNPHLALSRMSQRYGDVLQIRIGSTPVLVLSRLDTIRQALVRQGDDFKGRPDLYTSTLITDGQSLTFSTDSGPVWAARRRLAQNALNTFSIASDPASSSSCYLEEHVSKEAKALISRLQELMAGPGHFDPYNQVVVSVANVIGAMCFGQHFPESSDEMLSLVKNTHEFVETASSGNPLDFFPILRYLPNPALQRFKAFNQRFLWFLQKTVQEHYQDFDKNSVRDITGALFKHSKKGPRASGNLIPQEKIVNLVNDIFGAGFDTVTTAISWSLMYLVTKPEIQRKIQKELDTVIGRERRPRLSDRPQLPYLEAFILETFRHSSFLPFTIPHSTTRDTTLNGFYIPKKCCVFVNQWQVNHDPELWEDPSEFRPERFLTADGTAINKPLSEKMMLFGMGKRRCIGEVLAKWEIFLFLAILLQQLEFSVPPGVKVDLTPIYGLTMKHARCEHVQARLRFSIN

[14] = system: Mycobacterium tuberculosis; assay type: functional; details: H37Rv, 168 h; remark: listed apart in the source
[15] = Cytotoxicity against human HepG2 cells assessed as viability at 10 uM after 72 hrs by MTT assay relative to control; assay type: cell-based; details: read-out: Activity
[16] = system: Mycobacterium tuberculosis; assay: microbe, parasite or virus in culture; details: H37Rv, 168 h
Description: Antimycobacterial activity against Mycobacterium tuberculosis H37Rv after 7 days by resazurin reduction microplate assay

[17] = system: Mycobacterium tuberculosis; assay type: functional, H37Rv
[18] = system: Mycobacterium tuberculosis; assay type: functional; details: H37Rv, 168 h; remark: listed apart in the source
[19] = Intrinsic clearance in human liver S9 fraction at 2 uM by HPLC-MS/MS analysis; assay type: ADME, tissue-based
[20] = Cytotoxicity against African green monkey Vero cells assessed as viability at 10 uM after 72 hrs by MTT assay relative to control; assay type: cell-based; details: chlorocebus sabaeus, read-out: Activity
[21] = Kinetic solubility in water at pH 5.8; assay type: physicochemical; details: read-out: Kinetic_solubility
[22] = Thermodynamic solubility of the compound in acetate buffer at pH 4 after 24 hrs by HPLC method; assay type: physicochemical; details: read-out: Therm_solubility
[23] = system: Mycobacterium tuberculosis; assay: microbe, parasite or virus in culture; details: CDCT-4 (1105/09), 168 h
Description: Antimycobacterial activity against Mycobacterium tuberculosis CDCT-4 (1105/09) clinical isolate after 7 days by resazurin reduction microplate assay

[24] = Kinetic solubility in PBS at pH 7.4; assay type: physicochemical; details: read-out: Kinetic_solubility
[25] = Cytotoxicity against mouse RAW264.7 cells assessed as viability at 10 uM after 72 hrs by MTT assay relative to control; assay type: cell-based; details: read-out: Activity

Chain of Cytochrome P450 2C9 (P11712 whole entry): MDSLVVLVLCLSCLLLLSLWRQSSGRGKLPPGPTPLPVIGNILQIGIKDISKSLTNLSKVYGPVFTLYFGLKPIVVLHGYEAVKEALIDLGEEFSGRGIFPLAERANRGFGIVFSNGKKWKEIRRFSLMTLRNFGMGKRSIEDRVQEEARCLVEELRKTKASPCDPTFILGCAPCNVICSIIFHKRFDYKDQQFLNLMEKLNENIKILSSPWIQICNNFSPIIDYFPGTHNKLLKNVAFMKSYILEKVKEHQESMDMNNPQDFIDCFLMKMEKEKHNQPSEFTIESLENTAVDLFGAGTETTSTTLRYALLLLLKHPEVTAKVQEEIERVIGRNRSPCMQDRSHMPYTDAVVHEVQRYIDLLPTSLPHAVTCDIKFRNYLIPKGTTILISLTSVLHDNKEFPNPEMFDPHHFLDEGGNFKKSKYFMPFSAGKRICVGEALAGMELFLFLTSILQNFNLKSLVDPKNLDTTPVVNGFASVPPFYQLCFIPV

Molecule `CCCCCc1ccc(NC(=O)COc2cc(C)nc3ccc(OC)cc23)cc1` has an IC50 (Cytochrome P450 2C9) greater than 30 µM, a Papp at 1 µM [1] of 17 nm/s and an Activity [2] of 3.23 log10CFU. The IC50 (Cytochrome P450 2C19) was greater than 30 µM, the MIC [3] was 5 ng/mL (≈ 0.0127 µM) and the half-life at 2 µM [4] was 19.4 min. The viability at 72 h, 10 µM [5] was 105%, the Ratio [6] was 100 and the Ratio [7] was 292. The IC50 (Cytochrome P450 3A4) was greater than 30 µM, the MIC [8] was 0.001 µM (≈ 0.000392 µg/mL) and the MIC [9] was 1 ng/mL (≈ 0.00255 µM). The MIC [10] was 20 ng/mL (≈ 0.051 µM), the MIC [11] was 10 ng/mL (≈ 0.0255 µM) and the viability at 72 h, 10 µM [12] was 110%. It also gave a solubility thermodynamic at 24 h [13] of 30 µM (≈ 11.8 µg/mL), an IC50 (Cytochrome P450 2E1) greater than 30 µM and an IC50 (Cytochrome P450 2D6) greater than 30 µM. It also gave an IC50 (Cytochrome P450 1A2) greater than 30 µM, an MIC [14] of 2.5 ng/mL (≈ 0.00637 µM) and a viability at 72 h, 10 µM [15] of 83%. For the same molecule, the MIC [16] was 0.005 to 0.01 µM (≈ 0.00196 to 0.00392 µg/mL), the Ratio [17] was 2 and the MIC [18] was 10 ng/mL (≈ 0.0255 µM). For the same molecule, the CLhep predicted at 2 µM [19] was 0.888 L/h/kg, the viability at 72 h, 10 µM [20] was 97% and the solubility kinetic [21] was 2.6 µM (≈ 1.02 µg/mL). For the same molecule, the solubility thermodynamic at 24 h [22] was 20 µM (≈ 7.85 µg/mL), the MIC [23] was less than 0.05 µM and the solubility kinetic [24] was 4.7 µM (≈ 1.84 µg/mL). It also gave a viability at 72 h, 10 µM [25] of 86%.

From ChEMBL document CHEMBL4002573, “New insights into the SAR and drug combination synergy of 2-(quinolin-4-yloxy)acetamides against Mycobacterium tuberculosis” (Eur J Med Chem, 2017)
